What all share (test): Plate-bound mCD1d fusion protein hybridoma stimulation assay (IL-2 ELISA)
What all share (type): cell-based, mouse
A general note: In an ELISA, binding on a coated surface is turned into a signal by an enzyme label.

One experiment relates to 24.8.A hybridoma. The following applies: for IL-2 response to mCD1d fusion protein pre-treated with purified or synthetic lipid: 24.8.A hybridoma, compared to untreated or buffer treated fusion protein; for IL-2 secretion: 24.8 A NKT hybridoma, plate-bound mCD1d-IgGFc2a fusion protein preincubated with lipid antigen. An outline of the steps: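 Protein A plates were loaded with 400-600 ng/well mCD1d fusion protein, then given lipid antigen (40:1 molar ratio to fusion protein unless specified) in PBS pH 7.2 for 24-48 h at 37 °C. After washing, 1×10^5 hybridoma cells/well were added for 16-20 h at 37 °C. Secreted IL-2 measured by sandwich ELISA against a murine IL-2 standard curve.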

The subject of another experiment is XV104 hybridoma. Particulars: XV104 diverse TCR hybridoma; plate-bound mCD1d-IgGFc2a fusion protein preincubated with lipid antigen. An outline of the steps: (§1)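 Protein A plates loaded with 400-600 ng/well mCD1d fusion protein plus lipid antigen (default 40:1 molar ratio), 24-48 hr at 37 °C, washed; hybridomas added at 1×10^5 cells/well for 16-20 hr. Supernatant IL-2 quantified by sandwich ELISA against murine IL-2 standard curve.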

Another experiment relates to KT/23 hybridoma. The following applies: KT/23 NKT hybridoma; plate-bound mCD1d-IgGFc2a fusion protein preincubated with lipid antigen. In short, it runs like this:
as §1

The subject of a further experiment is VII68 hybridoma. Particulars: VII68 diverse TCR hybridoma; plate-bound mCD1d-IgGFc2a fusion protein preincubated with lipid antigen. In short, it runs like this:
as §1

In the next experiment the test system is 14S.10.C hybridoma. Particulars: 14S.10 C diverse TCR hybridoma; plate-bound mCD1d-IgGFc2a fusion protein preincubated with lipid antigen. An outline of the steps: as §1
Another experiment concerns 14S.7.N hybridoma. Particulars: 14S.7.N diverse TCR hybridoma; plate-bound mCD1d-IgGFc2a fusion protein preincubated with lipid antigen. In short, it runs like this:
as §1

For the next experiment, the system named is DN32D3 hybridoma. Particulars: DN32D3 NKT hybridoma; plate-bound mCD1d-IgGFc2a fusion protein preincubated with lipid antigen. An outline of the steps:
as §1

For a further experiment, the system named is VIII24 hybridoma. The following applies: VIII24 diverse TCR hybridoma; plate-bound mCD1d-IgGFc2a fusion protein preincubated with lipid antigen. An outline of the steps: as §1
A further experiment concerns 14S.15.A hybridoma. The following applies: 14S.15.A diverse TCR hybridoma; plate-bound mCD1d-IgGFc2a fusion protein preincubated with lipid antigen. An outline of the steps: as §1
The next experiment deals with 14S.6.A hybridoma. Particulars: 14S.6.A diverse TCR hybridoma; plate-bound mCD1d-IgGFc2a fusion protein preincubated with lipid antigen. An outline of the steps:
as §1

A further experiment has as its system 24.9.E hybridoma. Particulars: 24.9 E NKT hybridoma; plate-bound mCD1d-IgGFc2a fusion protein preincubated with lipid antigen. An outline of the steps: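 Lipid antigens were incubated with protein A-immobilized mCD1d fusion protein at pH 7.2 (or in citrate/phosphate buffer of specified pH, then neutralized), typically 40:1 antigen:protein. After washing, 1×10^5 hybridoma cells per well were added overnight, 16-20 hr, and IL-2 in supernatants was read by ELISA.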

The test system of the next experiment is XV19 hybridoma. Particulars: XV19 diverse TCR hybridoma; plate-bound mCD1d-IgGFc2a fusion protein preincubated with lipid antigen. In short, it runs like this: as §1
The next experiment has as its system KT/7 hybridoma. Particulars: KT/7 NKT hybridoma; plate-bound mCD1d-IgGFc2a fusion protein preincubated with lipid antigen. In short, it runs like this: as §1
The subject of the next experiment is Vβ/9 hybridoma. Particulars: Vβ/9 NKT hybridoma; plate-bound mCD1d-IgGFc2a fusion protein preincubated with lipid antigen. An outline of the steps:
as §1

A further experiment deals with KT/12 hybridoma. The following applies: KT/12 NKT hybridoma; plate-bound mCD1d-IgGFc2a fusion protein preincubated with lipid antigen. In short, it runs like this:
as §1

In another experiment the test system is 24.7.C hybridoma. The following applies: 24 7.C NKT hybridoma; plate-bound mCD1d-IgGFc2a fusion protein preincubated with lipid antigen. An outline of the steps: as §1
The subject of a further experiment is KT/22 hybridoma. The following applies: KT/22 NKT hybridoma; plate-bound mCD1d-IgGFc2a fusion protein preincubated with lipid antigen. An outline of the steps:
as §1

As for phosphatidylcholine [PC], the “IL-2 response to mCD1d fusion protein pre-treated with purified or synthetic lipid” value in the experiment with 24.8.A hybridoma is reported as “did not reproducibly significantly enhance reactivity”. Besides, the IL-2 secretion result was “+ (“+” indicates 50-250 pg/ml)” in the experiment with 24.8.A hybridoma; 0 (A “0” indicates a mean of less than 50 pg/ml IL-2 was secreted) in the experiment on XV104 hybridoma; 0 (A “0” indicates a mean of less than 50 pg/ml IL-2 was secreted) with KT/23 hybridoma; 0 (A “0” indicates a mean of less than 50 pg/ml IL-2 was secreted) in the experiment on VII68 hybridoma; 0 (A “0” indicates a mean of less than 50 pg/ml IL-2 was secreted) in the experiment with 14S.10.C hybridoma; 0 (A “0” indicates a mean of less than 50 pg/ml IL-2 was secreted) with 14S.7.N hybridoma. Further, the IL-2 secretion with DN32D3 hybridoma, with VIII24 hybridoma, with 14S.15.A hybridoma, in the experiment with 14S.6.A hybridoma, with 24.9.E hybridoma and in the experiment with XV19 hybridoma was 0 (A “0” indicates a mean of less than 50 pg/ml IL-2 was secreted) throughout. In addition, the IL-2 secretion in the experiment with KT/7 hybridoma, in the experiment with Vβ/9 hybridoma, in the experiment on KT/12 hybridoma, with 24.7.C hybridoma and in the experiment with KT/22 hybridoma was 0 (A “0” indicates a mean of less than 50 pg/ml IL-2 was secreted) in each case.

For phosphatidylserine [PS], in the experiment with 24.8.A hybridoma, the “IL-2 response to mCD1d fusion protein pre-treated with purified or synthetic lipid” value is reported as “did not reproducibly significantly enhance reactivity”. Also, the IL-2 secretion result in the experiment with 24.8.A hybridoma is reported as “+ (“+” indicates 50-250 pg/ml)”; with XV104 hybridoma, 0 (A “0” indicates a mean of less than 50 pg/ml IL-2 was secreted); in the experiment with KT/23 hybridoma, 0 (A “0” indicates a mean of less than 50 pg/ml IL-2 was secreted); in the experiment on VII68 hybridoma it was 0 (A “0” indicates a mean of less than 50 pg/ml IL-2 was secreted); in the experiment on 14S.10.C hybridoma, 0 (A “0” indicates a mean of less than 50 pg/ml IL-2 was secreted); in the experiment on 14S.7.N hybridoma it was 0 (A “0” indicates a mean of less than 50 pg/ml IL-2 was secreted). In addition, the IL-2 secretion in the experiment with DN32D3 hybridoma, in the experiment on VIII24 hybridoma, with 14S.15.A hybridoma, in the experiment on 14S.6.A hybridoma, in the experiment on 24.9.E hybridoma and in the experiment with XV19 hybridoma was 0 (A “0” indicates a mean of less than 50 pg/ml IL-2 was secreted) throughout. The IL-2 secretion in the experiment on KT/7 hybridoma, in the experiment on Vβ/9 hybridoma, with KT/12 hybridoma, with 24.7.C hybridoma and in the experiment with KT/22 hybridoma was 0 (A “0” indicates a mean of less than 50 pg/ml IL-2 was secreted) throughout.

Regarding sphingomyelin, the IL-2 secretion result is “+ (“+” indicates 50-250 pg/ml)” in the experiment with 24.8.A hybridoma; 0 (A “0” indicates a mean of less than 50 pg/ml IL-2 was secreted) with XV104 hybridoma; 0 (A “0” indicates a mean of less than 50 pg/ml IL-2 was secreted) with KT/23 hybridoma; 0 (A “0” indicates a mean of less than 50 pg/ml IL-2 was secreted) in the experiment on VII68 hybridoma; 0 (A “0” indicates a mean of less than 50 pg/ml IL-2 was secreted) in the experiment on 14S.10.C hybridoma; 0 (A “0” indicates a mean of less than 50 pg/ml IL-2 was secreted) in the experiment with 14S.7.N hybridoma. In addition, the IL-2 secretion with DN32D3 hybridoma was 0 (A “0” indicates a mean of less than 50 pg/ml IL-2 was secreted); in the experiment with VIII24 hybridoma, 0 (A “0” indicates a mean of less than 50 pg/ml IL-2 was secreted); in the experiment on 14S.15.A hybridoma, “+ (“+” indicates 50-250 pg/ml)”; in the experiment with 14S.6.A hybridoma it was 0 (A “0” indicates a mean of less than 50 pg/ml IL-2 was secreted); in the experiment on 24.9.E hybridoma it was 0 (A “0” indicates a mean of less than 50 pg/ml IL-2 was secreted); in the experiment with XV19 hybridoma, 0 (A “0” indicates a mean of less than 50 pg/ml IL-2 was secreted). Also, the IL-2 secretion in the experiment with KT/7 hybridoma, in the experiment with Vβ/9 hybridoma, with KT/12 hybridoma, with 24.7.C hybridoma and in the experiment with KT/22 hybridoma was 0 (A “0” indicates a mean of less than 50 pg/ml IL-2 was secreted) in each case.

(Values after patent US20020071842A1, “Soluble CD1 compositions and uses thereof” (priority 2000, published 2002).)
